Reference: patent US20090149458A1, “PYRROLO[3,2-d]PYRIMIDINE COMPOUNDS AND THEIR USE AS PI3 KINASE AND mTOR KINASE INHIBITORS” (Wyeth, priority 2007, published 2009)

Tests used:
PI3 Kinase α = PI3 Kinase α (Homo sapiens, UniProt P42336); assay: PI3K fluorescence polarization assay (PI3 Kinase α); type: biochemical; settings: 20 uM PIP2, 25 uM ATP;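 also: enzyme reaction with inhibitor or DMSO control, 30–60 min at room temperature, stopped by EDTA, then TAMRA detector with GST-GRP fluorescence polarization read after 90–110 min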
PI3 Kinase γ = PI3 Kinase γ (Homo sapiens, UniProt P48736); assay: PI3K fluorescence polarization assay (PI3 Kinase γ); type: biochemical; settings: 20 uM PIP2, 25 uM ATP
Method: Buffers: Reaction Buffer: 20 mM HEPES pH7.5, 2 mM MgCl2, 0.05% CHAPS, and 0.01% bME (added fresh); STOP/detection Buffer: 100 mM HEPES pH7.5, 4 mM EDTA, 0.05% CHAPS. STOCKS: ATP 20 mM in H2O; PIP2 (diC8, Echelon cat# P-4508) 1 mM in H2O MW=856.5; GST-murine GRP 1.5 mg/ml in 17% glycerol; Red detector probe-Echelon (TAMRA) 2.5 uM. Plate: Nunc 384 well black polypropylene fluor. Plate.
Assay: The assay is run by putting 9.5 ul of freshly diluted enzyme (in “reaction buffer”) per well, then 0.5 ul of diluted drug or DMSO mixing. Then 10 ul of substrate is added to start the reaction. The mixture is incubated 30-60 minutes, room temp, then stopped with 20 ul of stop/detector mix. The substrate solution, is 40 μM PIP2 and 50 uM ATP in reaction buffer. Addition of 10 ul of substrate to each well starts the reaction. This is 20 uM PIP2, 25 uM ATP final in reaction.
Stop/detector mix: 10 nM TAMRA detector, 40 nM GST-GRP in STOP/detection buffer. To stop reaction: add 20 ul Stop/detector mix per well and mix well. Wait 90-110 minutes before reading plate. Plates are read on Perkin-Elmer Envision plate readers with filters for Tamra. Keep Red probe solutions dark. This procedure is adapted from Echelon Biosciences Inc procedure for their PI3-Kinase fluorescence polarization activity Assay kit Product number K-1100.

human TOR = biological target: T1, human TOR (Homo sapiens, UniProt P42345); assay: human TOR kinase assay with purified enzyme, DELFIA format; type: biochemical; settings: FLAG-TOR, 100 μM ATP, His6-S6K substrate;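 also: 2 h kinase reaction at room temperature, phosphorylation of S6K at T389 detected with a europium-labelled antibody after plate capture, DMSO vehicle as control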
T1 construct: FLAG

[1] = tested on: acute lymphoblastic leukemia xenograft; settings: NOS/SCID xenograft mouse model of acute lymphoblastic leukemia; Teachey et al, Blood 2006; cited from earlier work

Chain of PI3 Kinase α (P42336 whole entry): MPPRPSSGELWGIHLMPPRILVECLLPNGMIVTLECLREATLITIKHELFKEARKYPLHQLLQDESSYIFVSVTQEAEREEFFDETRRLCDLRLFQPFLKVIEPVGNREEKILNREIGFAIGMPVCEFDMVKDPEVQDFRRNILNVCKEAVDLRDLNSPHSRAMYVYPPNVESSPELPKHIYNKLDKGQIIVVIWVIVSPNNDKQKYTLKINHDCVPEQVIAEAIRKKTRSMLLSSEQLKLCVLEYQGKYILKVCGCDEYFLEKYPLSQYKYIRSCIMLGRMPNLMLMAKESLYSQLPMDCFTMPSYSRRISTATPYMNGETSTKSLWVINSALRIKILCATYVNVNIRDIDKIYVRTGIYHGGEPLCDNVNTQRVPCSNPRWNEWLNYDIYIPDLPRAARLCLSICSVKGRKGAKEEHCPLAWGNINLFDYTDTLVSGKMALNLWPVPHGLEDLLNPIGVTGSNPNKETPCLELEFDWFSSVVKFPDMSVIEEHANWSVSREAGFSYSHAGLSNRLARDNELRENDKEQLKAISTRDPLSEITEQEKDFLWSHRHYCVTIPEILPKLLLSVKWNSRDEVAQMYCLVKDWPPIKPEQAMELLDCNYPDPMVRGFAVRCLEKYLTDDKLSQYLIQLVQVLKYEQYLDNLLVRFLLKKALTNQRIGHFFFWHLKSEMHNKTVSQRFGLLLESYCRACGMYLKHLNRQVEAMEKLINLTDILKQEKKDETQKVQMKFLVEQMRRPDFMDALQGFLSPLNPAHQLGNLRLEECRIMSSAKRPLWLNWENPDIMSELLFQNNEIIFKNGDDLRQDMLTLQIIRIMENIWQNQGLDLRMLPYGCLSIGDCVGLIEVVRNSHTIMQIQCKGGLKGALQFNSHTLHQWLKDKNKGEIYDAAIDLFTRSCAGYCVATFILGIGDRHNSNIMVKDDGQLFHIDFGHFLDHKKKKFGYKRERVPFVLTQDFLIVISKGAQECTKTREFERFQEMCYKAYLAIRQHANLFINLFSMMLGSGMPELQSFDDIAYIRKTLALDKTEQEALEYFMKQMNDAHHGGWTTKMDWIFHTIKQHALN
Chain of PI3 Kinase α (P27986 whole entry partner): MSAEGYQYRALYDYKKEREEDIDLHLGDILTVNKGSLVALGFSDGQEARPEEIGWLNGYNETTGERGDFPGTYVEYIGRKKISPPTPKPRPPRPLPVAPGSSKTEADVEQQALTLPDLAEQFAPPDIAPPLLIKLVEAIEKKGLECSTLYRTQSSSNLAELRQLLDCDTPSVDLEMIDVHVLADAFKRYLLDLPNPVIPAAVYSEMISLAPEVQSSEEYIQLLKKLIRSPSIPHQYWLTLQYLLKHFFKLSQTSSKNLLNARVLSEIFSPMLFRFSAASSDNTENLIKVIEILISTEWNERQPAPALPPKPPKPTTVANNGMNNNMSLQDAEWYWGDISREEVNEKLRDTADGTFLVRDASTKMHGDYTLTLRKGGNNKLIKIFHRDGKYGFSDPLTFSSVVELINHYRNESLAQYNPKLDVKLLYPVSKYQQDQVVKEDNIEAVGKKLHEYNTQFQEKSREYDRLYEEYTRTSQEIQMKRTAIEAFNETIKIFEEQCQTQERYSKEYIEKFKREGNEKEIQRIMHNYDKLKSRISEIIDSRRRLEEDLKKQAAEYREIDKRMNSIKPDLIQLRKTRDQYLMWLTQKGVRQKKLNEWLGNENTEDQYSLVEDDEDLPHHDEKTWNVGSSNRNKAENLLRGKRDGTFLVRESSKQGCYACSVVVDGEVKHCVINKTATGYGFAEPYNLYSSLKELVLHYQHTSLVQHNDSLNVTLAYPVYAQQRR
Chain of PI3 Kinase γ (P48736 whole entry): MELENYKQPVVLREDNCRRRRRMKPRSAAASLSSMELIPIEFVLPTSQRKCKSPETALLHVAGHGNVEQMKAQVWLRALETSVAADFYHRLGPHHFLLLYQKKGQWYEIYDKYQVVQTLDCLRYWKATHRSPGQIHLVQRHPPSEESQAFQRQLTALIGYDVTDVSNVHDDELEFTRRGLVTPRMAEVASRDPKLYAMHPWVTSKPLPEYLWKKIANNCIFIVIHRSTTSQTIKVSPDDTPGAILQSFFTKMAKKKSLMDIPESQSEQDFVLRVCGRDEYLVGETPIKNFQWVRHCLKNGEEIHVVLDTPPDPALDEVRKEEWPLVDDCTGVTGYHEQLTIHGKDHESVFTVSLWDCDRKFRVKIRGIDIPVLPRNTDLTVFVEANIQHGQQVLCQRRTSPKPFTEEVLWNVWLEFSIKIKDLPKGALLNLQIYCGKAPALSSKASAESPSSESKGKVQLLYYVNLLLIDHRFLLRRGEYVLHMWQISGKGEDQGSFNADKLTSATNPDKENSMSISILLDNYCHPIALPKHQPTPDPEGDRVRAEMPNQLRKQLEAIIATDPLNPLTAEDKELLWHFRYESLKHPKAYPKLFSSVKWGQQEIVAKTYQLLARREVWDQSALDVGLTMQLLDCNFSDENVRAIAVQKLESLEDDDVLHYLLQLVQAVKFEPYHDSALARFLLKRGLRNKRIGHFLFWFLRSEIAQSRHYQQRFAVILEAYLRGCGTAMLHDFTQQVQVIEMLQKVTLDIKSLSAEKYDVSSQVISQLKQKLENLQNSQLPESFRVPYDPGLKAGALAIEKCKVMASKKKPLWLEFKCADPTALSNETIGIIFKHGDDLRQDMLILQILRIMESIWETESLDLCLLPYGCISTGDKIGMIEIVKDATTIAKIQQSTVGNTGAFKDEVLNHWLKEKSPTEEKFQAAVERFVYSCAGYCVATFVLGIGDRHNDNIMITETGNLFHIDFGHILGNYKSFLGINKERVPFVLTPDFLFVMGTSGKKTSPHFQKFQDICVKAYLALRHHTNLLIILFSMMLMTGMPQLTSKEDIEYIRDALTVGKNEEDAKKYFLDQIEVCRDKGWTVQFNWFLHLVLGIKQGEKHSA

| SMILES | IC50 (PI3 Kinase α) [nM] | IC50 (PI3 Kinase γ) [nM] | IC50 (human TOR) [nM] | activity in xenograft model [1] |
| --- | --- | --- | --- | --- |
| Oc1cccc(-c2nc(N3CCOCC3)c3[nH]cc(C4CCN(Cc5ccc[nH]5)CC4)c3n2)c1 [Example 33, 3-{4-morpholin-4-yl-7-[1-(1H-pyrrol-2-ylmethyl)piperidin-4-yl]-5H-pyrrolo[3,2-d]pyrimidin-2-yl}phenol] | 111 | 792 | 960 |  |
| OCc1cccc(-c2nc(N3CCOCC3)c3[nH]cc(CN4CCNCC4)c3n2)c1 [Example 11, {3-[4-morpholin-4-yl-7-(piperazin-1-ylmethyl)-5H-pyrrolo[3,2-d]pyrimidin-2-yl]phenyl}methanol] | 30 | 510 | 4300 |  |
| Oc1cccc(-c2nc(N3CCOCC3)c3[nH]cc(C4CCN(Cc5ccccc5F)CC4)c3n2)c1 [Example 32, 3-{7-[1-(2-fluorobenzyl)piperidin-4-yl]-4-morpholin-4-yl-5H-pyrrolo[3,2-d]pyrimidin-2-yl}phenol] | 166 | 1920 | 330 |  |
| Oc1cccc(-c2nc(N3CCOCC3)c3[nH]cc(CN4CCN(c5ncccn5)CC4)c3n2)c1 [Example 20, 3-{4-morpholin-4-yl-7-[(4-pyrimidin-2-ylpiperazin-1-yl)methyl]-5H-pyrrolo[3,2-d]pyrimidin-2-yl}phenol] | 424 | 6700 | 2000 |  |
| Oc1cccc(-c2nc(N3CCOCC3)c3[nH]cc(C4CCN(Cc5ccc(F)nc5)CC4)c3n2)c1 [Example 39, 3-(7-{1-[(6-fluoropyridin-3-yl)methyl]piperidin-4-yl}-4-morpholin-4-yl-5H-pyrrolo[3,2-d]pyrimidin-2-yl)phenol] | 69 | 132 | 1260 |  |
| OCc1cccc(-c2nc(N3CCOCC3)c3[nH]cc(C4=CCN(Cc5ccccc5)CC4)c3n2)c1 [Example 25, {3-[7-(1-benzyl-1,2,3,6-tetrahydropyridin-4-yl)-4-morpholin-4-yl-5H-pyrrolo[3,2-d]pyrimidin-2-yl]phenyl}methanol] | 260 | 2790 | 1700 |  |
| CC(C)CN1CCC(c2c[nH]c3c(N4CCOCC4)nc(-c4cccc(O)c4)nc23)CC1 [Example 29, 3-[7-(1-isobutylpiperidin-4-yl)-4-morpholin-4-yl-5H-pyrrolo[3,2-d]pyrimidin-2-yl]phenol] | 498 | 1900 | 3150 |  |
| OCc1cccc(-c2nc(N3CCOCC3)c3[nH]cc(C4=CCNCC4)c3n2)c1 [Example 24, {3-[4-morpholin-4-yl-7-(1,2,3,6-tetrahydropyridin-4-yl)-5H-pyrrolo[3,2-d]pyrimidin-2-yl]phenyl}methanol] | 410 | 1200 | 3400 |  |
| c1ccc(COc2cccc(-c3nc(N4CCOCC4)c4[nH]ccc4n3)c2)cc1 [Example 1, 2-[3-(benzyloxy)phenyl]-4-morpholin-4-yl-5H-pyrrolo[3,2-d]pyrimidine] | 950 | 443 | > 4000 |  |
| O=C(NCc1cccnc1)Nc1cccc(-c2nc(N3CCOCC3)c3[nH]ccc3n2)c1 [Example 44, 1-[3-(4-morpholin-4-yl-5H-pyrrolo[3,2-d]pyrimidin-2-yl)phenyl]-3-(pyridin-3-ylmethyl)urea] | > 10000 | > 10000 | > 4000 |  |
| COC(=O)Cn1ccc2nc(-c3cccc(CO)c3)nc(N3CCOCC3)c21 [Example 46, Methyl {2-[3-(hydroxymethyl)phenyl]-4-morpholin-4-yl-5H-pyrrolo[3,2-d]pyrimidin-5-yl}acetate] | 2400 | 2680 | > 4000 |  |
| CC(C)(C)OC(=O)NCCN1CCC(c2c[nH]c3c(N4CCOCC4)nc(-c4cccc(O)c4)nc23)CC1 [Example 36, tert-Butyl (2-{4-[2-(3-hydroxyphenyl)-4-morpholin-4-yl-5H-pyrrolo[3,2-d]pyrimidin-7-yl]piperidin-1-yl}ethyl)carbamate] | 222 | 1730 | 580 |  |
| Oc1cccc(-c2nc(N3CCOCC3)c3[nH]cc(CN4CCCC4)c3n2)c1 [Example 17, 3-[4-morpholin-4-yl-7-(pyrrolidin-1-ylmethyl)-5H-pyrrolo[3,2-d]pyrimidin-2-yl]phenol] | 105 | 1560 | 3250 |  |
| C1=C(c2c[nH]c3c(N4CCOCC4)nc(-c4cccc(OCc5ccccc5)c4)nc23)CCNC1 [Example 21, 2-[3-(benzyloxy)phenyl]-4-morpholin-4-yl-7-(1,2,3,6-tetrahydropyridin-4-yl)-5H-pyrrolo[3,2-d]pyrimidine] | > 10000 | > 10000 | 7000 |  |
| CO[C@H]1C[C@@H]2CC[C@@H](C)[C@@](O)(O2)C(=O)C(=O)N2CCCC[C@H]2C(=O)O[C@H]([C@H](C)C[C@@H]2CC[C@@H](OC(=O)C(C)(CO)CO)[C@H](OC)C2)CC(=O)[C@H](C)/C=C(\C)[C@@H](O)[C@@H](OC)C(=O)[C@H](C)C[C@H](C)/C=C/C=C/C=C/1C [Torisel] |  |  |  | active |
